How the values were obtained:
Anas platyrhynchos = settings: oral, mortality
Apis mellifera = settings: acute; duration: 48 hours; oral; unspecified; mortality
Canidae = settings: chronic; duration: 1 years; oral; Dog Other; organ weight
Colinus virginianus = settings: for LD50: acute, oral, mortality
Daphnia magna = settings: chronic/long-term; duration: 21 days; reproduction
Mus musculus = settings: acute; oral; mortality
Oryctolagus sp. = settings: reproduction developmental; body weight
Tagia sp. = settings: acute; duration: 14 days; mortality
Aphidius rhopalosiphi = test: LR50; higher = less toxic; settings: not reported; mortality
Typhlodromus pyri = test: LR50; higher = less toxic; settings: not reported; mortality

Molecule `CCOc1ccc(NC(=O)OC(C)C)cc1OCC` [Diethofencarb] has an LD50 (Anas platyrhynchos; acute, unspecified) greater than 2250 mg/kg-day, an LD50 (Anas platyrhynchos; short-term, feed) greater than 1630 mg/kg-day and an LD50 (Apis mellifera) greater than 100 µg/piece. It also gave an NOAEL (Canidae) of 50 mg/kg-day, an LD50 (Colinus virginianus; diet) greater than 1810 mg/kg-day and an LD50 (Colinus virginianus) greater than 2250 mg/kg-day. The NOEL (Colinus virginianus; reproduction developmental) was 78.7 mg/kg-day, the NOEC (Daphnia magna) was 0.032 mg/L and the LD50 (Mus musculus) was greater than 5000 mg/kg-day. It also gave an LC50 (Oncorhynchus mykiss; acute, duration: 96 hours, mortality) greater than 10 µg/mL, an NOEC (Oncorhynchus mykiss; chronic/long-term, duration: 88 days, growth) of 0.072 mg/L and an NOEL (Oryctolagus sp.) of 300 mg/kg-day. It also gave an LD50 (Rattus norvegicus; acute, oral, mortality) greater than 5000 mg/kg-day, an NOAEL (Rattus norvegicus; chronic, duration: 2 years, organ weight) of 42.7 mg/kg-day and an LC50 (Tagia sp.) greater than 1000 mg/kg. For the same molecule, the LR50 (Aphidius rhopalosiphi) was greater than 1500 g/ha and the LR50 (Typhlodromus pyri) was 7.2 g/ha.

Source: EPA's ToxValDB 9.5 (doi:10.2903/j.efsa.2010.1721)
